Reference: patent US20140357512A1, “HISTONE DEACETYLASE (HDAC) BIOMARKERS IN MULTIPLE MYELOMA” (priority 2013, published 2014)

Tested on: human myeloma cell line MM.1S
Experiment: SILAC acetylated-lysine peptide profiling, HDAC inhibitor vs DMSO (light/heavy ratio)
Format: cell-based
Source text: An embodiment of the invention comprises utilizing the SILAC method in order to quantitate changes in protein expression between two or more populations of cells. The SILAC method is a technique based on mass spectrometry that detects differences in protein abundance among samples using non-radioactive isotopic labeling. The SILAC method is known in the art, and described in detail in Ong et al., “Stable Isotope Labeling by Amino Acids in Cell Culture, SILAC, as a Simple and Accurate Approach to Expression Proteomics”, Molecular & Cellular Proteomics, vol. 1, pp. 376-386 (2002), which is incorporated herein by reference in its entirety.
Briefly, the SILAC method involves growing two populations of cells in cell culture. The first population of cells is grown in growth media containing normal amino acids (“normal media”). The second population of cells is grown in media lacking a standard essential amino acid (such as lysine), but is then supplemented with a non-radioactive, isotopically labeled form of that essential amino acid (such as lysine labeled with ^13C atoms, rather than normal ^12C atoms), which is called “heavy media”. When the two populations of cells are each growing in the medium, they incorporate the amino acids into all of their proteins. The growth of cells maintained in the heavy media is no different from that in normal media. All peptides containing the heavy amino acids are heavier than their normal counterparts. The cells from each of the two populations of cells are lysed. The lysates from each of the two cell populations are then combined. The combined cell lysates are then analyzed by mass spectrometry. Pairs of chemically identical peptides of different stable isotope composition can be differentiated in a mass spectrometer due to their difference in mass. The ratio of peak intensities in the mass spectrum for such peptide pairs reflects the abundance ratio for the two proteins.
This example describes SILAC studies that were performed to compare the effects of three different HDAC inhibitors (Compound A, Compound B, and tubastatin A) to a control on a human multiple myeloma cell line. The HDAC inhibitors were also compared amongst themselves to determine differences in their effects.
A human myeloma cell line MM.1S was grown using either ^12C (light) or ^13C (heavy) lysine containing culture medium. The “heavy” cells were treated with DMSO as the control, and the “light” cells were treated with a single HDAC inhibitor at 37° C. for 6 hours. The heavy and light cells were lysed, and the lysates were mixed in 1:1 ratio and digested with the protease trypsin. The acetylated lysine containing peptides (due to the action of the HDAC inhibitor) in the digested peptide pool were captured by a non-specific anti-acetylated lysine antibody cocktail (the antibodies identify both light and heavy acetylated peptides), and subjected to mass spectrometry analysis in order to identify thousands of individual peptides.
Thousands of peptides were identified in pairs (^12C and ^13C) due to their known mass differences. The amino acid sequence and quantitative ratio (Light/Heavy) of a given peptide in two differentially treated cell lysates were then determined and annotated with their possible protein (gene) sources.
As stated above, three HDAC inhibitors (Compound A, Compound B, and Tubastatin A) were used. Thus, the SILAC method was performed three times, with a different HDAC inhibitor compared to a control each time. Accordingly, there are three pairs of quantitative data in the table below, i.e., Compound A:DMSO, Compound B:DMSO, and Tubastatin A:DMSO. A cut-off of 1.30 fold of change (increase or decrease) was then used to determine “changed” or “+” in the table, and any peptides with a fold of change less than 1.3 fold were determined to be “unchanged” or “0” in the table. Those peptides that were not identified were marked as “NA” in the table. […]

CN1CCc2c(c3ccccc3n2Cc2ccc(C(=O)NO)cc2)C1 [Tub A]
light to heavy ratio (L/H ratio) of acetylated peptide, log 2 scale (NIDPK(ac)PCTPR (SEQ ID NO: 148), Isoform 1 of DAZ-associated protein 1 [83], DAZAP1): 0.80
L/H ratio of acetylated peptide (NK(ac)WFFQK (SEQ ID NO: 498), 60S ribosomal protein L27 [128], RPL27): 0.00 log 2
light to heavy ratio (L/H ratio) of acetylated peptide, log 2 scale (NKEEAAEYAK(ac)LLAK (SEQ ID NO: 214), 40S ribosomal protein S6 [211], RPS6): 0.53
light to heavy ratio (L/H ratio) of acetylated peptide, log 2 scale (NLDK(ac)EYLPIGGLAEFCK (SEQ ID NO: 159), Aspartate aminotransferase mitochondrial [94], GOT2): −0.46
L/H ratio of acetylated peptide ADKDYHFK(ac)VDNDENEHQLSLR (SEQ ID NO: 61) (NPM1 [32], log 2 scale, drug vs DMSO): −0.64
L/H ratio of acetylated peptide FINYVK(ac)NCFR (SEQ ID NO: 62) (NPM1 [244], log 2 scale, drug vs DMSO): −0.52
light to heavy ratio (L/H ratio) of acetylated peptide, log 2 scale (NTILK(ac)AYDGR (SEQ ID NO: 177), Isocitrate dehydrogenase [NADP] mitochondrial [256], IDH2): −0.49
L/H ratio of acetylated peptide GVTQFGNK(ac)YIQQTKPLTLER (SEQ ID NO: 18) (NUDT21 [23], log 2 scale, drug vs DMSO): 0.50
light to heavy ratio (L/H ratio) of acetylated peptide, log 2 scale (NVESYTK(ac)LGNPTR (SEQ ID NO: 210), Dolichyl-diphosphooligosaccharide--protein glycosyltransferase subunit 1 precursor [226], RPN1): −0.88
light to heavy ratio (L/H ratio) of acetylated peptide, log 2 scale (NVTLPAVFK(ac)APIRPDIVNFVHTNLR (SEQ ID NO: 205), 60S ribosomal protein L4 [29], RPL4): −0.48
L/H ratio of acetylated peptide (NVYK(ac)FELDTSER (SEQ ID NO: 444), Dolichyl-diphosphooligosaccharide--protein glycosyltransferase subunit 2 [460], RPN2): 0.00 log 2
light to heavy ratio (L/H ratio) of acetylated peptide, log 2 scale (NYEHLFK(ac)VNDK (SEQ ID NO: 192), Mitochondrial import inner membrane translocase subunit TIM16 [82], PAM16): 1.00
light to heavy ratio (L/H ratio) of acetylated peptide FCLSK(ac)PGVYK (SEQ ID NO: 345) (Nodal modulator 1 [630], NOMO3, NOMO1, drug:DMSO): 0.00 log 2
L/H ratio of acetylated peptide SGVGNVFIK(ac)NLDK (SEQ ID NO: 63) (PABPC4 [104], log 2 scale, drug vs DMSO): −0.54
L/H ratio of acetylated peptide YGVSGYPTLK(ac)IFR (SEQ ID NO: 66) (PDIA3 [104], log 2 scale, drug vs DMSO): −0.60
L/H ratio of acetylated peptide PSHLTNK(ac)FEDK (SEQ ID NO: 65) (PDIA3 [214], log 2 scale, drug vs DMSO): −0.63
L/H ratio of acetylated peptide GEK(ac)FVMQEEFSR (SEQ ID NO: 64) (PDIA3 [335], log 2 scale, drug vs DMSO): −0.58
light to heavy ratio (L/H ratio) of acetylated peptide, log 2 scale (PGGPALWGDAFK(ac)R (SEQ ID NO: 189), Protein NipSnap homolog 3A [166], NIPSNAP3A): 0.77
L/H ratio of acetylated peptide SLLGK(ac)DVLFLK (SEQ ID NO: 67) (PGK1 [91], log 2 scale, drug vs DMSO): 0.38
L/H ratio of acetylated peptide SIYGEK(ac)FEDENFILK (SEQ ID NO: 68) (PPIA [82], log 2 scale, drug vs DMSO): −0.67
L/H ratio of acetylated peptide VIFGLFGK(ac)TVPK (SEQ ID NO: 70) (PPIB [67], log 2 scale, drug vs DMSO): −0.44
L/H ratio of acetylated peptide TVPK(ac)TVDNFVALATGEK (SEQ ID NO: 69) (PPIB [71], log 2 scale, drug vs DMSO): −0.49
L/H ratio of acetylated peptide VIK(ac)[…] (SEQ ID NO: 71) (PPIB [98], log 2 scale, drug vs DMSO): −0.40
L/H ratio of acetylated peptide IYGFYDECK(ac)R (SEQ ID NO: 72) (PPP1CC [141], log 2 scale, drug vs DMSO): −0.43
light to heavy ratio (L/H ratio) of acetylated peptide TAWLDGK(ac)HVVFGK (SEQ ID NO: 592) (Peptidyl-prolyl cis-trans isomerase B [165], gene PPIB, inhibitor:DMSO): 0.00 log 2
light to heavy ratio (L/H ratio) of acetylated peptide FPDENFK(ac)LK (SEQ ID NO: 347) (Peptidyl-prolyl cis-trans isomerase C [123], PPIC, drug:DMSO): 0.00 log 2
light to heavy ratio (L/H ratio) of acetylated peptide (ac)AAK(ac)VFESIGK (SEQ ID NO: 277) (Prohibitin [4], PHB, drug:DMSO): 0.39 log 2
light to heavy ratio (L/H ratio) of acetylated peptide FVVEK(ac)AEQQK (SEQ ID NO: 263) (Prohibitin [202], PHB, drug:DMSO): 0.62 log 2
light to heavy ratio (L/H ratio) of acetylated peptide GYPTIK(ac)FFR (SEQ ID NO: 541) (Protein disulfide-isomerase [103], gene P4HB, inhibitor:DMSO): 0.00 log 2
light to heavy ratio (L/H ratio) of acetylated peptide THILLFLPK(ac)SVSDYDGK (SEQ ID NO: 297) (Protein disulfide-isomerase [263], P4HB, drug:DMSO): −0.45 log 2
light to heavy ratio (L/H ratio) of acetylated peptide SGLLDK(ac)WK (SEQ ID NO: 602) (Signal peptidase complex subunit 2 [38], gene LOC653566, SPCS2, inhibitor:DMSO): 0.00 log 2
light to heavy ratio (L/H ratio) of acetylated peptide (ac)AEYLASIFGTEK(ac)DK (SEQ ID NO: 283) (Splicing factor U2AF 35 kDa subunit [13], U2AF1, drug:DMSO): 0.60 log 2
light to heavy ratio (L/H ratio) of acetylated peptide YDDPEVQK(ac)DIK (SEQ ID NO: 578) (Stress-70 protein mitochondrial [135], gene HSPA9, inhibitor:DMSO): 0.00 log 2
light to heavy ratio (L/H ratio) of acetylated peptide, log 2 scale (TAMK(ac)YNLGLDLR (SEQ ID NO: 158), Glutamate dehydrogenase 1 mitochondrial [527], GLUD1): 0.48
light to heavy ratio (L/H ratio) of acetylated peptide, log 2 scale (TLNDELEIIEGMK(ac)FDR (SEQ ID NO: 175), 60 kDa heat shock protein mitochondrial [218], HSPD1): −0.45
light to heavy ratio (L/H ratio) of acetylated peptide, log 2 scale (TPELNLDQFHDK(ac)TPYTIMFGPDK (SEQ ID NO: 139), cDNA FLJ55574 highly similar to Calnexin [217], CANX): −0.48
light to heavy ratio (L/H ratio) of acetylated peptide, log 2 scale (TPVIVTLK(ac)ENER (SEQ ID NO: 176), Hypoxia up-regulated protein 1 [75], HYOU1): −0.54
L/H ratio of acetylated peptide INVYYNEATGGK(ac)YVPR (SEQ ID NO: 109) (TUBB2C [58], log 2 scale, drug vs DMSO): −0.43
L/H ratio of acetylated peptide ILAEGGGAK(ac)FK (SEQ ID NO: 110) (TUFM [91], log 2 scale, drug vs DMSO): −0.61
L/H ratio of acetylated peptide QIESK(ac)TAFQEALDAAGDK (SEQ ID NO: 111) (TXN [8], log 2 scale, drug vs DMSO): −0.70
L/H ratio of acetylated peptide VYVAK(ac)VDCTAHSDVCSAQGVR (SEQ ID NO: 113) (TXNDC5, MUTED, MUTED-TXNDC5 [118], log 2 scale, drug vs DMSO): −0.49
L/H ratio of acetylated peptide LFKPGQEAVK(ac)YQGPR (SEQ ID NO: 112) (TXNDC5, MUTED, MUTED-TXNDC5 [150], log 2 scale, drug vs DMSO): −0.47
light to heavy ratio (L/H ratio) of acetylated peptide, log 2 scale (TYGEIFEK(ac)FHPIR (SEQ ID NO: 188), NADH dehydrogenase [ubiquinone] 1 subunit C2 [114], NDUFC2): 1.00
light to heavy ratio (L/H ratio) of acetylated peptide NICSK(ac)YSVR (SEQ ID NO: 256) (Thioredoxin domain-containing protein 5 [390], TXNDC5, MUTED, MUTED-TXNDC5, drug:DMSO): −0.51 log 2
